# Source: patent US9353082B2, “Pharmaceutical compounds” (BIAL—PORTELA & CA, S.A., priority 2008, dated 2016)
# Key:
# [1] = molecular target: T1, FAAH (Mus musculus, UniProt O08914); assay: In vivo FAAH inhibition after oral dosing, remaining activity in liver homogenate (LVh, peripheral tissue); set-up: species or system NMRI mice; details: liver homogenate; for In Vivo LVh 3 mg · kg · 8 h (remaining FAAH activity): 3 mg/kg oral, low value = strong inhibitor
# T1 construct: A fragment of liver, left lung lobe and brain without cerebellum were removed; from tissue; host or cells: male NMRI mice; brain (without cerebellum) and liver homogenates
# T1 sequence (O08914 1-579): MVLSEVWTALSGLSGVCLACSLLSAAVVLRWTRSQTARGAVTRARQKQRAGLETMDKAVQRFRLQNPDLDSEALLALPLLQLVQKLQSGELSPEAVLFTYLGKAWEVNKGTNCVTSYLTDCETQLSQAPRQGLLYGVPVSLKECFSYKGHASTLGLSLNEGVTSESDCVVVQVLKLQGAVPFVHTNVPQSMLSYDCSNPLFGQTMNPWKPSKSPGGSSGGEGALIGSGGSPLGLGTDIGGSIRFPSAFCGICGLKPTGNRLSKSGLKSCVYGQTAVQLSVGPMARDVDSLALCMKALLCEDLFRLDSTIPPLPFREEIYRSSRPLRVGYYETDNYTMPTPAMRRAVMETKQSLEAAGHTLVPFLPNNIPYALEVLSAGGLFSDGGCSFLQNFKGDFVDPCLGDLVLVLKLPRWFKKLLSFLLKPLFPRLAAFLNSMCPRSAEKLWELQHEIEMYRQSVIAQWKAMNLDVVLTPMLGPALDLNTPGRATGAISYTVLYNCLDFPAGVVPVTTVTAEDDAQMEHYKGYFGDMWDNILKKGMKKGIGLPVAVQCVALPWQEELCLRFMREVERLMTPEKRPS
# Outline: (§1)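 Remaining FAAH activity is given as % of vehicle-treated controls after blank subtraction, measured by radiolabelled AEA hydrolysis (2 μM AEA, 5 nM 3H-AEA, 37 °C) in brain (10 min) or liver (7 min) homogenates. These came from fasted male NMRI mice dosed orally at 30 or 3 mg/kg.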
# [2] = molecular target: T1, FAAH; assay: In vivo FAAH inhibition after oral dosing, remaining activity in brain homogenate (BRh, central nervous tissue); set-up: species or system NMRI mice; details: brain homogenate; for In Vivo BRh 3 mg · kg · 8 h (remaining FAAH activity): 3 mg/kg oral, low value = strong inhibitor
# Outline: as §1
# [3] = molecular target: T2, FAAH (Rattus norvegicus, UniProt P97612); assay: In vitro FAAH activity in rat brain membranes, 3H-AEA substrate, % of control; type: biochemical, Wistar rats; details: low value = strong inhibitor; for In Vitro FAAH activity, 100 nM: 100 nM test compound; for In Vitro FAAH activity, 10 uM: 10 uM test compound
# T2 construct: Frozen brains (without cerebellum) from Wistar rats were used; from tissue; host or cells: Wistar rat brain (without cerebellum), washed membrane pellets
# T2 sequence (P97612 1-579): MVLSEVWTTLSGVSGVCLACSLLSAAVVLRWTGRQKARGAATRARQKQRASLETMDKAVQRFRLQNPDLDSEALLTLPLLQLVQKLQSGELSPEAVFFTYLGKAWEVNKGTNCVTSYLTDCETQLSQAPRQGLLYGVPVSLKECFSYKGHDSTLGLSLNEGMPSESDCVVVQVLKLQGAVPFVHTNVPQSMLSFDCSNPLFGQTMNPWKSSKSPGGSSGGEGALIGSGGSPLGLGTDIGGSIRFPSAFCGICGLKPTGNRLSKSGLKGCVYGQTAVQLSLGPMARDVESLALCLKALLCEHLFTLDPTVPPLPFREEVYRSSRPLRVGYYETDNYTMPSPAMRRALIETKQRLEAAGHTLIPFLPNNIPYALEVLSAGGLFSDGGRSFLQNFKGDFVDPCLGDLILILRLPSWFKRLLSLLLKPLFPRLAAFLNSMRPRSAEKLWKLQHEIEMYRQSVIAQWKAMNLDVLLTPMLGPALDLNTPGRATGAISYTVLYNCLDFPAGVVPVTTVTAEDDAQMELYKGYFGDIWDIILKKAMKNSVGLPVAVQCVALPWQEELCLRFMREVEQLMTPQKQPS
# Outline: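 FAAH activity measured as 3H-ethanolamine released from 2 μM [3H]AEA over 10 min by rat brain membrane preparation, after 15 min 37 °C preincubation with test compound at 10 or 0.1 μM. Charcoal-separated supernatant scintillation-counted; values expressed as % of control minus no-protein blank.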
SMILES,"In Vivo LVh 30 mg/kg 1 h, remaining FAAH activity [1]","In Vivo BRh 30 mg/kg 1 h, remaining FAAH activity [2]","In Vitro FAAH activity, 100 nM [3]","In Vitro FAAH activity, 10 uM [3]",In Vivo LVh 3 mg · kg · 8 h (remaining FAAH activity) [1],In Vivo BRh 3 mg · kg · 8 h (remaining FAAH activity) [2]
"CN(C(=O)n1cnc(-c2ccccc2)c1)c1ccccc1 [Compound 4, N-methyl-N,4-diphenyl-1H-imidazole-1-carboxamide]",10.6 % of control,14.3 % of control,83.6 % of control,0.1 % of control,,
"CN(C(=O)n1cnc(-c2ccc3ccccc3c2)c1)c1ccccc1 [Compound 14, N-methyl-4-(naphthalen-2-yl)-N-phenyl-1H-imidazole-1-carboxamide]",77.3 % of control,96.7 % of control,68.3 % of control,0 % of control,,
"O=C(N1CCOCC1)n1nnc2ccccc21 [Compound 19, (1H-benzo[d][1,2,3]triazol-1-yl)(morpholino)methanone]",41.1 % of control,46.6 % of control,3.1 % of control,0.1 % of control,,
"CN(C(=O)n1cnc(-c2ccc(F)cc2)c1)c1ccccc1 [Compound 29, 4-(4-fluorophenyl)-N-methyl-N-phenyl-1H-imidazole-1-carboxamide]",17.2 % of control,10.7 % of control,52.5 % of control,0 % of control,,
"CN(C(=O)n1nnc2ccc(Cl)cc21)c1ccccc1 [Compound 32, 6-chloro-N-methyl-N-phenyl-1H-benzo[d][1,2,3]triazole-1-carboxamide]",64.9 % of control,85.9 % of control,0.1 % of control,0 % of control,,
"CN(C(=O)n1cnc(-c2ccccc2)c1)C1CCNCC1.Cl [Compound no. 504, N-methyl-4-phenyl-N-(piperidin-4-yl)-1H-imidazole-1-carboxamide hydrochloride]",,,,,51.2 % of control,112.5 % of control
"CCN1CCC(N(C)C(=O)n2cnc(-c3cccc([N+](=O)[O-])c3)c2)CC1 [Compound no. 509, N-(1-ethylpiperidin-4-yl)-N-methyl-4-(3-nitrophenyl)-1H-imidazole-1-carboxamide]",,,,,17.2 % of control,78.3 % of control
"CCCN1CCC(N(C)C(=O)n2cnc(-c3ccc[n+]([O-])c3)c2)CC1 [Compound no. 519, 3-(1-(methyl(1-propylpiperidin-4-yl)carbamoyl)-1H-imidazol-4-yl)pyridine 1-oxide]",,,,,4.4 % of control,82 % of control
"CN(C(=O)n1cnc(-c2cccnc2)c1)C1CCN(S(C)(=O)=O)CC1 [Compound no. 533, N-methyl-N-(1-(methylsulfonyl)piperidin-4-yl)-4-(pyridin-3-yl)-1H-imidazole-1-carboxamide]",,,,,0.2 % of control,12 % of control

# The remaining lines, values ahead:
"In Vivo LVh 30 mg/kg 1 h, remaining FAAH activity [1]","In Vivo BRh 30 mg/kg 1 h, remaining FAAH activity [2]","In Vitro FAAH activity, 100 nM [3]","In Vitro FAAH activity, 10 uM [3]",In Vivo LVh 3 mg · kg · 8 h (remaining FAAH activity) [1],In Vivo BRh 3 mg · kg · 8 h (remaining FAAH activity) [2],SMILES
,,,,22.9 % of control,48.9 % of control,"CN(C(=O)n1cnc(-c2ccc(O)c([N+](=O)[O-])c2)c1)C1CCOCC1 [Compound no. 494, 4-(4-hydroxy-3-nitrophenyl)-N-methyl-N-(tetrahydro-2H-pyran-4-yl)-1H-imidazole-1-carboxamide]"
,,,,2.3 % of control,2.1 % of control,"CN(C(=O)n1cnc(-c2ccc(O)c(F)c2)c1)C1CCOCC1 [Compound no. 495, 4-(3-fluoro-4-hydroxyphenyl)-N-methyl-N-(tetrahydro-2H-pyran-4-yl)-1H-imidazole-1-carboxamide]"
,,,,12.6 % of control,21.4 % of control,"CCCN1CCC(N(C)C(=O)n2cnc(-c3cccc(OC)c3)c2)CC1 [Compound no. 498, 4-(3-methoxyphenyl)-N-methyl-N-(1-propylpiperidin-4-yl)-1H-imidazole-1-carboxamide]"
,,,,44.1 % of control,120.6 % of control,"CN(C(=O)n1cnc(-c2ccc(O)c(C(N)=O)c2)c1)C1CCCCC1 [Compound no. 499, 4-(3-carbamoyl-4-hydroxyphenyl)-N-cyclohexyl-N-methyl-1H-imidazole-1-carboxamide]"
,,,,21.8 % of control,75.1 % of control,"CN(C(=O)n1cnc(-c2ccc(F)c(O)c2)c1)C1CCOCC1 [Compound no. 500, 4-(4-fluoro-3-hydroxyphenyl)-N-methyl-N-(tetrahydro-2H-pyran-4-yl)-1H-imidazole-1-carboxamide]"
,,,,67.4 % of control,108.5 % of control,"COc1ccc(-c2cn(C(=O)N(C)C3CCNCC3)cn2)cc1 [Compound no. 501, 4-(4-methoxyphenyl)-N-methyl-N-(piperidin-4-yl)-1H-imidazole-1-carboxamide]"
,,,,11.5 % of control,50.2 % of control,"CCN1CCC(N(C)C(=O)n2cnc(-c3cccc(OC)c3)c2)CC1 [Compound no. 502, N-(1-ethylpiperidin-4-yl)-4-(3-methoxyphenyl)-N-methyl-1H-imidazole-1-carboxamide]"
,,,,25.1 % of control,78.8 % of control,"CCN1CCC(N(C)C(=O)n2cnc(-c3ccc(OC)c(F)c3)c2)CC1 [Compound no. 503, N-(1-ethylpiperidin-4-yl)-4-(3-fluoro-4-methoxyphenyl)-N-methyl-1H-imidazole-1-carboxamide]"
,,,,34 % of control,101.7 % of control,"COc1ccc(-c2cn(C(=O)N(C)C3CCCCC3)cn2)cc1/C(N)=N\O [Compound no. 507, (E)—N-cyclohexyl-4-(3-(N′-hydroxycarbamimidoyl)-4-methoxyphenyl)-N-methyl-1H-imidazole-1-carboxamide]"
,,,,14.4 % of control,90.3 % of control,"CN(C(=O)n1cnc(-c2ccc(O)c(C(N)=O)c2)c1)C1CCOCC1 [Compound no. 513, 4-(3-carbamoyl-4-hydroxyphenyl)-N-methyl-N-(tetrahydro-2H-pyran-4-yl)-1H-imidazole-1-carboxamide]"
,,,,18.3 % of control,74.6 % of control,"CCN1CCC(N(C)C(=O)n2cnc(-c3ccc(O)c(F)c3)c2)CC1 [Compound no. 536, N-(1-ethylpiperidin-4-yl)-4-(3-fluoro-4-hydroxyphenyl)-N-methyl-1H-imidazole-1-carboxamide]"
,,,,33.7 % of control,89.7 % of control,"COc1ccc(-c2cn(C(=O)N(C)C3CCN(CCO)CC3)cn2)cc1F [Compound no. 540, 4-(3-fluoro-4-methoxyphenyl)-N-(1-(2-hydroxyethyl)piperidin-4-yl)-N-methyl-1H-imidazole-1-carboxamide]"
